Several values for one entry are separate records, joined by “and”; a condition that tells them apart may be missing. Identical values can stand only once.
Tested on: non-constipation IBS
Test: Study 2 (TARGET 2): rifaximin 550 mg TID 14 days vs placebo in non-C IBS, 10-week follow-up
Type: in vivo, human
Description: The primary efficacy endpoint of the study was the proportion of subjects who achieved adequate relief of IBS symptoms for at least 2 weeks during the first 4 weeks of the 10-week follow-up phase.
Two measures of efficacy were assessed.
Subjects were questioned on the relief of overall IBS symptoms and bloating. […] The analyses defined success as a “yes” response to questions regarding adequate relief. […]
All subpopulations in the study responded to therapy. Baseline severity was determined during screening for Abdominal Pain/Discomfort and Bloating, and the number, type (normal, hard, loose) and urgency of bowel movements. Duration of effect was assessed in a ten week follow-up period. […]
In TARGET 1 and 2, the primary endpoint was the proportion of patients who achieved adequate relief of IBS symptoms for at least 2 of 4 weeks during the month following 14 days of treatment. Adequate relief was defined as a response of “yes” to the following weekly Subject Global Assessment (SGA) question: “In regards to your IBS symptoms, compared to the way you felt before you started study medication, have you, in the past 7 days, had adequate relief of your IBS symptoms? [Yes/No]”
The key secondary endpoint was the proportion of patients who achieved adequate relief of IBS-related bloating for at least 2 of 4 weeks during the month following 2 weeks of treatment. Adequate relief of IBS-related bloating was defined as a response of “yes” to the following weekly (every 7 days) SGA question: “In regards to your IBS symptom of bloating, compared to the way you felt before you started study medication, have you, in the past 7 days, had adequate relief of your IBS symptom of bloating? […]

[1] = 550 mg TID, Population: ITT (N = 315)
[2] = 550 mg TID, Population: PP (N = 311)
[3] = 550 mg TID, Weeks 3-6, Population: PP (N = 311)
[4] = 550 mg TID, at least 2 of Weeks 3-6, N = 315, LOCF
[5] = Age Group: <65 (N = 281), 550 mg TID, Weeks 3-6
[6] = Age Group: >=65, 550 mg TID, Weeks 3-6
[7] = Gender: Female (N = 226), 550 mg TID, Weeks 3-6
[8] = Gender: Male (N = 85), 550 mg TID, Weeks 3-6
[9] = IBS Subtype: Alternating-predominant, 550 mg TID, Weeks 3-6
[10] = IBS Subtype: Diarrhoea-predominant, 550 mg TID, Weeks 3-6
[11] = Race: Non-White (N = 31), 550 mg TID, Weeks 3-6
[12] = Race: White (N = 280), 550 mg TID, Weeks 3-6
[13] = Study 2, at least 2 weeks during PEP

Structure (SMILES): CO[C@H]1/C=C/O[C@@]2(C)Oc3c(C)c(O)c4c(O)c(c5c(nc6cc(C)ccn65)c4c3C2=O)NC(=O)/C(C)=C\C=C\[C@H](C)[C@H](O)[C@@H](C)[C@@H](O)[C@@H](C)[C@H](OC(C)=O)[C@@H]1C [Rifaximin, (2S,16Z,18E,20S,21S,22R,23R,24R,25S,26S,27S,28E)-5,6,21,23,25 Pentahydroxy-27-methoxy-2,4,11,16,20,22,24,26-octamethyl-2,7-(epoxypentadeca-(1,11,13)trienimino) benzofuro (4,5-e) pyrido(1,2-a) benzimidazole-1,15(2H)-dione,25-acetate]
- Subjects with skin or subcutaneous tissue disorders (550 mg TID): 1.3%
- Adequate relief of IBS symptom of bloating based on daily measures, Failure [1]: 182 (57.8%) N (%)
- Adequate relief of IBS symptom of bloating based on daily measures, Success [1]: 133 (42.2%) N (%)
- Adequate relief of IBS symptoms based on daily measures, Failure [1]: 200 (63.5%) N (%)
- Adequate relief of IBS symptoms based on daily measures, Success [1]: 115 (36.5%) N (%)
- Adequate relief of IBS symptom of bloating based on daily measures, Failure [2]: 180 (57.9%) N (%)
- Adequate relief of IBS symptom of bloating based on daily measures, Success [2]: 131 (42.1%) N (%)
- Adequate relief of IBS symptoms based on daily measures, Failure [2]: 196 (63.0%) N (%)
- Adequate relief of IBS symptoms based on daily measures, Success [2]: 115 (37.0%) N (%)
- Adequate relief of IBS symptom of bloating (weekly SGA), Failure [3]: 187 (60.1%) N (%)
- Adequate relief of IBS symptom of bloating (weekly SGA), Success [3]: 124 (39.9%) N (%)
- Adequate relief of IBS symptoms (weekly SGA), Failure [3]: 187 (60.1%) N (%)
- Adequate relief of IBS symptoms (weekly SGA), Success [3]: 124 (39.9%) N (%)
- Adequate relief of IBS symptom of bloating (weekly SGA), Failure [4]: 190 (60.3%) n (%)
- Adequate relief of IBS symptom of bloating (weekly SGA), Success [4]: 125 (39.7%) n (%)
- Adequate relief of IBS symptoms (weekly SGA), Failure [4]: 190 (60.3%) n (%)
- Adequate relief of IBS symptoms (weekly SGA), Success [4]: 125 (39.7%) n (%)
- Subjects discontinued study early for Adverse Event/Serious Adverse Event (550 mg TID, randomized subjects (316)): 0 n (%)
- Adequate relief of IBS symptom of bloating (weekly SGA), Failure [5]: 171 (60.9%) N (%)
- Adequate relief of IBS symptom of bloating (weekly SGA), Success [5]: 110 (39.1%) N (%)
- Adequate relief of IBS symptoms (weekly SGA), Failure [5]: 171 (60.9%) N (%)
- Adequate relief of IBS symptoms (weekly SGA), Success [5]: 110 (39.1%) N (%)
- Adequate relief of IBS symptom of bloating (weekly SGA), Failure [6]: 16 (53.3%) N (%)
- Adequate relief of IBS symptom of bloating (weekly SGA), Success [6]: 14 (46.7%) N (%)
- Adequate relief of IBS symptoms (weekly SGA), Failure [6]: 16 (53.3%) N (%)
- Adequate relief of IBS symptoms (weekly SGA), Success [6]: 14 (46.7%) N (%)
- Adequate relief of IBS symptom of bloating (weekly SGA), Failure [7]: 128 (56.6%) N (%)
- Adequate relief of IBS symptom of bloating (weekly SGA), Success [7]: 98 (43.4%) N (%)
- Adequate relief of IBS symptoms (weekly SGA), Failure [7]: 130 (57.5%) N (%)
- Adequate relief of IBS symptoms (weekly SGA), Success [7]: 96 (42.5%) N (%)
- Adequate relief of IBS symptom of bloating (weekly SGA), Failure [8]: 59 (69.4%) N (%)
- Adequate relief of IBS symptom of bloating (weekly SGA), Success [8]: 26 (30.6%) N (%)
- Adequate relief of IBS symptoms (weekly SGA), Failure [8]: 57 (67.1%) N (%)
- Adequate relief of IBS symptoms (weekly SGA), Success [8]: 28 (32.9%) N (%)
- Adequate relief of IBS symptom of bloating (weekly SGA), Failure [9]: 19 (55.9%) N (%)
- Adequate relief of IBS symptom of bloating (weekly SGA), Success [9]: 15 (44.1%) N (%)
- Adequate relief of IBS symptoms (weekly SGA), Failure [9]: 21 (61.8%) N (%)
- Adequate relief of IBS symptoms (weekly SGA), Success [9]: 13 (38.2%) N (%)
- Adequate relief of IBS symptom of bloating (weekly SGA), Failure [10]: 168 (60.6%) N (%)
- Adequate relief of IBS symptom of bloating (weekly SGA), Success [10]: 109 (39.4%) N (%)
- Adequate relief of IBS symptoms (weekly SGA), Failure [10]: 166 (59.9%) N (%)
- Adequate relief of IBS symptoms (weekly SGA), Success [10]: 111 (40.1%) N (%)
- Adequate relief of IBS symptom of bloating (weekly SGA), Failure [11]: 17 (54.8%) N(%)
- Adequate relief of IBS symptom of bloating (weekly SGA), Success [11]: 14 (45.2%) N(%)
- Adequate relief of IBS symptoms (weekly SGA), Failure [11]: 16 (51.6%) N(%)
- Adequate relief of IBS symptoms (weekly SGA), Success [11]: 15 (48.4%) N(%)
- Adequate relief of IBS symptom of bloating (weekly SGA), Failure [12]: 170 (60.7%) N (%)
- Adequate relief of IBS symptom of bloating (weekly SGA), Success [12]: 110 (39.3%) N (%)
- Adequate relief of IBS symptoms (weekly SGA), Failure [12]: 171 (61.1%) N (%)
- Adequate relief of IBS symptoms (weekly SGA), Success [12]: 109 (38.9%) N (%)
- IBS symptom of bloating: adequate relief at least 2 out of 4 weeks during weeks 3 through 6 (weekly question) (Study 2 / TARGET 2): 41%
- Global IBS symptoms: adequate relief at least 2 out of 4 weeks during weeks 3 through 6 (weekly question) (Study 2 / TARGET 2, 550 mg TID 14 d): 41% and 32% vs 41%
- Responders: abdominal pain reduction of 1 point in weekly mean [13]: 52%
- Responders: abdominal pain reduction of 2 point in median [13]: 41%
- Responders: abdominal pain reduction of 3 point in mean [13]: 6% vs 7%
- Responders: abdominal pain reduction of 3 point in median [13]: 21%
